Experimental data as given in patent publication US7491705B2, “Alpha-ketoamide derivative, and production method and use thereof” (Senju Pharmaceutical Co., Ltd., priority 2003, dated 2009).
≈ marks a conversion by molar mass, not a printed value.

Columns and labels:
[1] = test system: T1, μ-calpain; type: biochemical; conditions: μ-calpain derived from human red blood cells; 30° C., 60 minutes; read-out: Enzyme inhibitory activity μ-calpain (IC50)
T1 construct: μ-calpain (derived from human red blood cells; available from Cosmo Bio Co. Ltd.); purchased Cosmo Bio Co. Ltd; host or cells: purified from human red blood cells
Procedure: (1) Measurement of Inhibitory Activity Against μ-Calpain and m-Calpain
The inhibitory activity against μ-calpain and m-calpain was assayed according to the method described in Anal. Biochem. 1993, vol. 208, p. 387-392. That is, to 2.5 μL of a DMSO solution containing a varying concentration of the test sample in a 96-well plate was added 200 μL of a reaction solution containing 0.5 mg/mL casein, 50 mM Tris-HCl buffer (pH 7.4), 20 mM dithiothreitol and 1.0 nmol μ-calpain (derived from human red blood cells; available from Cosmo Bio Co. Ltd.) or m-calpain (derived from porcine kidney; available from Cosmo Bio Co. Ltd.). After 20 mM aqueous calcium chloride (50 μL) was added thereto, the mixture was incubated at 30° C. for 60 minutes. Then, 100 μL of the reaction solution was transferred to another 96-well plate, and purified water (50 μL) and 50% aqueous solution (100 μL) of Protein Assay Dye Reagent (available from Bio-Rad Laboratories, Inc.; catalogue No. 500-600) were added thereto. The reaction mixture was allowed to stand at room temperature for 15 minutes, and its absorbance was measured at 595 nm.
The absorbance of a reaction mixture prepared in the same manner as mentioned above, except that a DMSO solution contained no sample, was used as a control value, and that of a reaction mixture prepared in the same manner as mentioned above, except that 1 mM aqueous EDTA solution (50 μL) was used in place of 20 mM aqueous calcium chloride, was used as a blank value. […] Inhibition rate (%)={1−(measured value minus blank value)/(control value minus blank value)}×100

[2] = Transportation rate into blood after oral administration; type: in vivo, Macaca fascicularis (crab-eating monkey); conditions: cynomolgus monkey, 10 mg/kg, Macaca fascicularis, plasma; for AUC(0-t): read-out: AUC 0→4 hr
Procedure: The compound of the present invention was administered orally to Macaca fascicularis (crab-eating monkey) at a dose of 10 mg/kg. The blood was collected with the lapse of time, and the concentration of each compound in the plasma was measured.

[3] = Partition coefficient using IAM column; type: physicochemical; conditions: IAM Fast Screening Mini-Column; Dulbecco's phosphate buffer (pH 7.4)
Procedure: Analysis by HPLC system was carried out under the conditions given below, and retention time of each substance was measured. • Column: IAM Fast Screening Mini-Column (Regis Technologies, Inc.) • Mobile phase: Dulbecco's phosphate buffer (pH 7.4) • Detection wavelength: 250 nm • Column temperature: room temperature • Injection amount: 5.0 to 20 μL • Flow rate: 0.5 mL/min • Sample solution: 5 mg of sample was dissolved in 100 μL of acetonitrile, and a mobile phase was added to make 1 mL of a sample solution.
The measured value was inserted into the following formula, and the partition coefficient (K′ IAM) was calculated. k′IAM=(tR−t0)/t0 t0: retention time of the peak derived from acetonitrile tR: retention time of the peak of the sample

[4] = Solubility in 10 mM phosphate buffer (pH 7.0); type: physicochemical
Procedure: Solubility of the compounds of the present invention in 10 mM phosphate buffer (pH 7.0) was measured.

[5] = in vitro; conditions: human, Caco-2
Procedure: As a culture medium for the incubation, Dulbecco's modified Eagle's minimum essential medium (GIBCO BRL) supplemented with 10% fetal calf serum (GIBCO BRL), antibiotic-antimycotic mixture, liquid (GIBCO BRL), non-essential amino acid solution (GIBCO BRL) and 2 mmol/L L-glutamine (GIBCO BRL) was used. […] Propranolol was used as a positive control, and ^14C-mannitol was used as a negative control. LC-MS/MS was used for quantitative analysis of samples, and a liquid scintillation counter was used for quantitative analysis of ^14C-mannitol.
Papp: apparent permeation coefficient (cm/sec)
δQ/δt: permeation velocity (pmol/min)
A: area of monolayer cell=0.33 cm^2
C0: initial concentration at apical membrane side (pmol/mL)

SMILES | IC50 [1] | other results
COCCOCCOC(=O)N[C@@H](CC(C)C)C(=O)NC(Cc1ccccc1)C(=O)C(N)=O (mixture of isomers) [Compound 23, ((1S)-1-((((1RS)-3-amino-1-benzyl-2,3-dioxopropyl)amino)carbonyl)-3-methylbutyl)carbamic acid 5-methoxy-3-oxapentyl ester] | 190 nM | –
CCNC(=O)C(=O)[C@H](Cc1ccccc1)NC(=O)[C@H](CC(C)C)NC(=O)OCCOC [Compound 1, ((1S)-1-((((1S)-1-Benzyl-2,3-dioxo-3-(ethylamino)propyl)amino)carbonyl)-3-methylbutyl)carbamic acid 2-methoxyethyl ester] | 170 nM | –
CCNC(=O)C(=O)[C@H](Cc1ccccc1)NC(=O)[C@H](CC(C)C)NC(=O)O[C@H]1CCOC1 [Compound 2, ((1S)-1-((((1S)-1-Benzyl-2,3-dioxo-3-(ethylamino)propyl)amino)carbonyl)-3-methylbutyl)carbamic acid (3S)-tetrahydrofuran-3-yl ester] | 150 nM | –
CCNC(=O)C(=O)[C@H](Cc1ccccc1)NC(=O)[C@H](CC(C)C)NC(=O)OC1CCOCC1 [Compound 3, ((1S)-1-((((1S)-1-Benzyl-2,3-dioxo-3-(ethylamino)propyl)amino)carbonyl)-3-methylbutyl)carbamic acid tetrahydro-4H-pyran-4-yl ester] | 250 nM | –
CC(C)C[C@H](NC(=O)O[C@H]1CCOC1)C(=O)N[C@@H](Cc1ccccc1)C(=O)C(=O)NC1CC1 [Compound 5, ((1S)-1-((((1S)-1-Benzyl-3-(cyclopropylamino)-2,3-dioxo-propyl)amino)carbonyl)-3-methylbutyl)carbamic acid (3S)-tetrahydrofuran-3-yl ester] | 90 nM | –
CC(C)C[C@H](NC(=O)OC1CCOCC1)C(=O)N[C@@H](Cc1ccccc1)C(=O)C(=O)NC1CC1 [Compound 6, ((1S)-1-((((1S)-1-Benzyl-3-cyclopropylamino-2,3-dioxo-propyl)amino)carbonyl)-3-methylbutyl)carbamic acid tetrahydro-4H-pyran-4-yl ester] | 120 nM | –
CCCNC(=O)C(=O)[C@H](Cc1ccccc1)NC(=O)[C@H](CC(C)C)NC(=O)OCCOC [Compound 7] | 100 nM | –
COCCOC(=O)N[C@@H](CC(C)C)C(=O)N[C@@H](Cc1ccccc1)C(=O)C(=O)NC1CCC1 [Compound 8, ((1S)-1-((((1S)-1-Benzyl-2,3-dioxo-3-(cyclobutylamino)propyl)amino)carbonyl)-3-methylbutyl)carbamic acid 2-methoxyethyl ester] | 170 nM | –
CCCCNC(=O)C(=O)[C@H](Cc1ccccc1)NC(=O)[C@H](CC(C)C)NC(=O)OCCOC [Compound 9, ((1S)-1-((((1S)-1-Benzyl-3-butylamino-2,3-dioxo-propyl)amino)carbonyl)-3-methylbutyl)carbamic acid 2-methoxyethyl ester] | 100 nM | –
COCCOC(=O)N[C@@H](CC(C)C)C(=O)N[C@@H](Cc1ccccc1)C(=O)C(=O)NCC(F)(F)F [Compound 10, ((1S)-1-((((1S)-1-Benzyl-2,3-dioxo-3-(2,2,2-trifluoroethylamino)propyl)amino)carbonyl)-3-methylbutyl)carbamic acid 2-methoxyethyl ester] | 450 nM | –
COCCOC(=O)N[C@@H](CC(C)C)C(=O)N[C@@H](Cc1ccccc1)C(=O)C(=O)NC1Cc2ccccc2C1 [Compound 11, ((1S)-1-((((1S)-1-Benzyl-2,3-dioxo-3-(2-indanylamino)propyl)amino)carbonyl)-3-methylbutyl)carbamic acid 2-methoxyethyl ester] | 170 nM | –
COCCNC(=O)C(=O)[C@H](Cc1ccccc1)NC(=O)[C@H](CC(C)C)NC(=O)OCCOC [Compound 12, ((1S)-1-((((1S)-1-Benzyl-2,3-dioxo-3-(2-methoxyethylamino)propyl)amino)carbonyl)-3-methylbutyl)carbamic acid 2-methoxyethyl ester] | 180 nM | –
CCNC(=O)C(=O)[C@H](CCc1ccccc1)NC(=O)[C@H](CC(C)C)NC(=O)OCCOC [Compound 13, ((1S)-1-((((1S)-2,3-Dioxo-3-ethylamino-1-(phenylethyl)propyl)amino)carbonyl)-3-methylbutyl)carbamic acid 2-methoxyethyl ester] | 300 nM | –
CCNC(=O)C(=O)[C@H](CCc1ccccc1)NC(=O)[C@H](CC(C)C)NC(=O)O[C@H]1CCOC1 [Compound 14, ((1S)-1-((((1S)-2,3-Dioxo-3-ethylamino-1-(phenylethyl)propyl)amino)carbonyl)-3-methylbutyl)carbamic acid (3S)-tetrahydrofuran-3-yl ester] | 160 nM | –
COCCOC(=O)N[C@@H](CC(C)C)C(=O)N[C@@H](CCc1ccccc1)C(=O)C(=O)NC1CC1 [Compound 15, ((1S)-1-((((1S)-2,3-Dioxo-3-cyclopropylamino-1-(phenylethyl)propyl)amino)carbonyl)-3-methylbutyl)carbamic acid 2-methoxyethyl ester] | 180 nM | –
CC(C)C[C@H](NC(=O)O[C@H]1CCOC1)C(=O)N[C@@H](CCc1ccccc1)C(=O)C(=O)NC1CC1 [Compound 16, ((1S)-1-((((1S)-2,3-Dioxo-3-cyclopropylamino-1-(phenylethyl)propyl)amino)carbonyl)-3-methylbutyl)carbamic acid (3S)-tetrahydro-furan-3-yl ester] | 140 nM | –
COCCOCCOCCOC(=O)N[C@@H](CC(C)C)C(=O)N[C@@H](Cc1ccccc1)C(=O)C(=O)NC1CC1 [Compound 18, ((1S)-1-((((1S)-1-Benzyl-2,3-dioxo-3-(cyclopropylamino)propyl)amino)carbonyl)-3-methylbutyl)carbamic acid 8-methoxy-3,6-dioxaoctyl ester] | – | Cmax [2]: 660 nM; AUC(0-t) [2]: 1.6 µM·h; IAM (Log k′IAM) [3]: 1.38; Solubility [4]: 5400 µg/mL (≈ 10.1 mM)
COCCOCCOCCOCCOC(=O)N[C@@H](CC(C)C)C(=O)N[C@@H](Cc1ccccc1)C(=O)C(=O)NC1CC1 [Compound 19, ((1S)-1-((((1S)-1-Benzyl-2,3-dioxo-3-(cyclopropylamino)propyl)amino)carbonyl)-3-methylbutyl)carbamic acid 11-methoxy-3,6,9-trioxaundecanyl ester] | – | Cmax [2]: 900 nM; AUC(0-t) [2]: 1.6 µM·h; IAM (Log k′IAM) [3]: 1.44; Solubility [4]: 8300 µg/mL (≈ 14.3 mM)
COCCOCCOCCOCCOCCOC(=O)N[C@@H](CC(C)C)C(=O)N[C@@H](Cc1ccccc1)C(=O)C(=O)NC1CC1 [Compound 20, ((1S)-1-((((1S)-1-Benzyl-2,3-dioxo-3-(cyclopropylamino)propyl)amino)carbonyl)-3-methylbutyl)carbamic acid 14-methoxy-3,6,9,12-tetraoxa-tetradecanyl ester] | – | Solubility [4]: 16300 µg/mL (≈ 26.1 mM)
COCCOC(=O)N[C@@H](CC(C)C)C(=O)N[C@@H](CC(C)C)C(=O)C(=O)NCCOc1ccccc1 [Compound 21, ((1S)-1-((((1S)-2,3-Dioxo-1-(2-methylpropyl)-3-(2-phenoxyethyl)aminopropyl)amino)carbonyl)-3-methylbutyl)carbamic acid 2-methoxyethyl ester] | 80 nM | –
COCCOCCOC(=O)N[C@@H](CC(C)C)C(=O)N[C@@H](CC(C)C)C(=O)C(=O)NCCOc1ccccc1 [Compound 22, ((1S)-1-((((1S)-2,3-Dioxo-1-(2-methylpropyl)-3-(2-phenoxyethyl)aminopropyl)amino)carbonyl)-3-methylbutyl)carbamic acid 5-methoxy-3-oxapentyl ester] | 90 nM | –
CC(C)C[C@H](NC(=O)OCCc1ccccn1)C(=O)N[C@@H](Cc1ccccc1)C(=O)C(=O)NC1CC1 [Compound 24, ((1S)-1-((((1S)-1-benzyl-3-(cyclopropylamino)-2,3-dioxo-propyl)amino)carbonyl)-3-methylbutyl)carbamic acid 2-(pyridin-2-yl)ethyl ester] | 29 nM | –
CC(C)NCC(O)COc1cccc2ccccc12 (stereo not drawn) [Propranolol, reference compound] | – | IAM (Log k′IAM) [3]: 1.95; Papp A→B at 10 μm [5]: 8.5 ×10⁻⁶ cm/s
